Laboratory results as given in patent publication US9434743B2, “Indazole derivatives” (TAKEDA PHARMACEUTICAL COMPANY LIMITED, priority 2012, dated 2016).

How the values were obtained:
human MetAP2 enzyme [1] = molecular target: T1, human MetAP2 enzyme (Homo sapiens, UniProt P50579); experiment: MetAP2 enzyme assay, enzyme complexed with manganese ions; conditions: MetAP2 Mn pIC50, MetAP2 enzyme complexed with manganese ions; Met-AMC substrate at Km
human MetAP2 enzyme [2] = molecular target: T1, human MetAP2 enzyme; experiment: MetAP2 enzyme assay, enzyme complexed with cobalt ions; conditions: MetAP2 Co pIC50, MetAP2 enzyme complexed with cobalt ions; Met-AMC substrate at Km

T1 sequence (P50579 whole entry): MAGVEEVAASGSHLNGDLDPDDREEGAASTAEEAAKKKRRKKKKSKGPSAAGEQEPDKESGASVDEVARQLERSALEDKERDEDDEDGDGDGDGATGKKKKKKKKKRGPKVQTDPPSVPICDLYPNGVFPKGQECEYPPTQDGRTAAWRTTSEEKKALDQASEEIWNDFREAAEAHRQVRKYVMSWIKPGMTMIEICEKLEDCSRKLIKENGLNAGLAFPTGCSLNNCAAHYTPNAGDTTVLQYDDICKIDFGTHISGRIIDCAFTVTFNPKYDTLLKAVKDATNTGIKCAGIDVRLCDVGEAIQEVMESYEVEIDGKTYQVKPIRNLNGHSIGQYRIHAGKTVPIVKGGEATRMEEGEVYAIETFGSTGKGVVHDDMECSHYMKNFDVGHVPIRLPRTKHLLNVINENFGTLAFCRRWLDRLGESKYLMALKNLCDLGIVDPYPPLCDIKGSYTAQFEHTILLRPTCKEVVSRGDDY

IC50 (human MetAP2 enzyme [1]) | IC50 (human MetAP2 enzyme [2]) | Compound
3.98 nM | 158 nM | Cn1c(-c2cc(C(F)(F)F)cc3[nH]ncc23)nc2c1c(=O)[nH]c(=O)n2C [Example 167, 3,7-dimethyl-8-(6-(trifluoromethyl)-1H-indazol-4-yl)-1H-purine-2,6(3H,7H)-dione]
12.6 nM | 1260 nM | NCC(O)c1ccccc1-c1cc(C(F)(F)F)cc2[nH]ncc12 (centres unmarked) [Example 205, 2-amino-1-(2-(6-(trifluoromethyl)-1H-indazol-4-yl)phenyl)ethanol]
7.94 nM | 20 nM | FC(F)(F)c1cc(-c2ccc3[nH]cnc3c2)c2cn[nH]c2c1 [Example 17, 4-(1H-benzo[d]imidazol-5-yl)-6-(trifluoromethyl)-1H-indazole]
5.01 nM | 63.1 nM | CCn1cc(-c2cc(C(F)(F)F)cc3[nH]ncc23)c(C)n1 [Example 171, 4-(1-ethyl-3-methyl-1H-pyrazol-4-yl)-6-(trifluoromethyl)-1H-indazole]
126 nM | 2000 nM | FC(F)(F)c1cc(-c2cnc3cnccn23)c2cn[nH]c2c1 [Example 152, 3-(6-(trifluoromethyl)-1H-indazol-4-yl)imidazo[1,2-a]pyrazine]
5.01 nM | 158 nM | FC(F)(F)c1cc(-c2cnc3[nH]ccc3n2)c2cn[nH]c2c1 [Example 240, 2-(6-(trifluoromethyl)-1H-indazol-4-yl)-5H-pyrrolo[2,3-b]pyrazine]
79.4 nM | 631 nM | CNC(=O)c1ccc(F)cc1-c1cc(C(F)(F)F)cc2[nH]ncc12 [Example 102, 4-fluoro-N-methyl-2-(6-(trifluoromethyl)-1H-indazol-4-yl)benzamide]
2.51 nM | 39.8 nM | O=S(=O)(NCCO)c1ccc(-c2cc(C(F)(F)F)cc3[nH]ncc23)cc1 [Example 224, N-(2-hydroxyethyl)-4-(6-(trifluoromethyl)-1H-indazol-4-yl)benzenesulfonamide]
10 nM | 501 nM | C[C@@H](O)CNC(=O)c1cc(-c2cc(C(F)(F)F)cc3[nH]ncc23)c(=O)n(C)c1 [Example 358, (R)—N-(2-hydroxypropyl)-1-methyl-6-oxo-5-(6-(trifluoromethyl)-1H-indazol-4-yl)-1,6-dihydropyridine-3-carboxamide]
15.8 nM | 63.1 nM | FC(F)(F)c1cc(-c2c[nH]c3ncncc23)c2cn[nH]c2c1 [Example 155, 5-(6-(trifluoromethyl)-1H-indazol-4-yl)-7H-pyrrolo[2,3-d]pyrimidine]
6.31 nM | 25.1 nM | Cn1ncc2cc(-c3cc(C(F)(F)F)cc4[nH]ncc34)ccc21 [Example 36, 1′-methyl-6-(trifluoromethyl)-1H,1′H-4,5′-biindazole]
10 nM | 398 nM | O=C(NCC(F)F)c1c[nH]c(=O)c(-c2cc(C(F)(F)F)cc3[nH]ncc23)c1 [Example 338, N-(2,2-difluoroethyl)-6-oxo-5-(6-(trifluoromethyl)-1H-indazol-4-yl)-1,6-dihydropyridine-3-carboxamide]
31.6 nM | 63.1 nM | CC(=O)Cn1nc(C)c(-c2cc(C(F)(F)F)cc3[nH]ncc23)c1C [Example 324, 1-(3,5-dimethyl-4-(6-(trifluoromethyl)-1H-indazol-4-yl)-1H-pyrazol-1-yl)propan-2-one]
12.6 nM | 158 nM | O=C1Cc2cccc(-c3cc(C(F)(F)F)cc4[nH]ncc34)c2N1 [Example 136, 7-(6-(trifluoromethyl)-1H-indazol-4-yl)indolin-2-one]
15.8 nM | 50.1 nM | CNC(=O)Cn1nc(C)c(-c2cc(C(F)(F)F)cc3[nH]ncc23)c1C [Example 367, 2-(3,5-dimethyl-4-(6-(trifluoromethyl)-1H-indazol-4-yl)-1H-pyrazol-1-yl)-N-methylacetamide]
6.31 nM | 63.1 nM | COc1ncc(-c2cc(C(F)(F)F)cc3[nH]ncc23)cc1C(=O)NCCO [Example 229, N-(2-hydroxyethyl)-2-methoxy-5-(6-(trifluoromethyl)-1H-indazol-4-yl)nicotinamide]
